From publication PMC11969009 (Nature Communications, 2025)
Where “and” joins values, the source holds several entries; their conditions need not be identical. Equal values may be shown once. Read-outs that look alike come from different tables or passages of the source.

How the values were obtained:
SARS-CoV PLpro = SARS-CoV PLpro (Severe acute respiratory syndrome coronavirus, UniProt P0C6X7); assay: biochemical; set-up: inhibition of SARS-CoV PLpro, UbRh dose-response replicate value: unit: %
MERS-CoV PLpro = MERS-CoV PLpro (Middle East respiratory syndrome-related coronavirus, UniProt K9N7C7); assay type: biochemical; set-up: unit: %
SARS-CoV-2 PLpro [1] = target: T1, SARS-CoV-2 PLpro (Severe acute respiratory syndrome coronavirus 2, UniProt P0DTD1); assay: biochemical; assay type: binding
Cezanne = Cezanne (Homo sapiens, UniProt Q6GQQ9); assay type: biochemical
SARS-CoV-2 PLpro [2] = target: T1, SARS-CoV-2 PLpro; assay: cell-based; assay type: cell-based
OTUD1 = OTUD1 (Homo sapiens, UniProt Q5VV17); assay type: biochemical
ATXN3 = ATXN3 (Homo sapiens, UniProt P54252); assay type: biochemical
UCHL3 = UCHL3 (Homo sapiens, UniProt P15374); assay type: biochemical
USP21 = USP21 (Homo sapiens, UniProt Q9UK80); assay type: biochemical
[3] = test system: SARS-CoV-2 clinical isolate VIC001; assay: microbe, parasite or virus in culture; assay type: cell-based; settings: Severe acute respiratory syndrome coronavirus 2, Vero, read-out: Antiviral EC50 (plaque assay)
SARS-CoV-2 PLpro [4] = target: T1, SARS-CoV-2 PLpro
SARS-CoV-2 PLpro [5] = target: T1, SARS-CoV-2 PLpro; assay: biochemical; set-up: inhibition of SARS-CoV-2 PLpro, UbRh dose-response replicate value: unit: %; settings: for IC50: IC50 (UbRh) SARS-CoV-2 PLpro
[6] = test system: panel of human DUBs (ATXN3, Cezanne, OTUD1, USP10, USP21, UCHL3); assay type: biochemical
USP10 = USP10 (Homo sapiens, UniProt Q14694); assay type: biochemical
Chain of USP10 (Q14694 whole entry): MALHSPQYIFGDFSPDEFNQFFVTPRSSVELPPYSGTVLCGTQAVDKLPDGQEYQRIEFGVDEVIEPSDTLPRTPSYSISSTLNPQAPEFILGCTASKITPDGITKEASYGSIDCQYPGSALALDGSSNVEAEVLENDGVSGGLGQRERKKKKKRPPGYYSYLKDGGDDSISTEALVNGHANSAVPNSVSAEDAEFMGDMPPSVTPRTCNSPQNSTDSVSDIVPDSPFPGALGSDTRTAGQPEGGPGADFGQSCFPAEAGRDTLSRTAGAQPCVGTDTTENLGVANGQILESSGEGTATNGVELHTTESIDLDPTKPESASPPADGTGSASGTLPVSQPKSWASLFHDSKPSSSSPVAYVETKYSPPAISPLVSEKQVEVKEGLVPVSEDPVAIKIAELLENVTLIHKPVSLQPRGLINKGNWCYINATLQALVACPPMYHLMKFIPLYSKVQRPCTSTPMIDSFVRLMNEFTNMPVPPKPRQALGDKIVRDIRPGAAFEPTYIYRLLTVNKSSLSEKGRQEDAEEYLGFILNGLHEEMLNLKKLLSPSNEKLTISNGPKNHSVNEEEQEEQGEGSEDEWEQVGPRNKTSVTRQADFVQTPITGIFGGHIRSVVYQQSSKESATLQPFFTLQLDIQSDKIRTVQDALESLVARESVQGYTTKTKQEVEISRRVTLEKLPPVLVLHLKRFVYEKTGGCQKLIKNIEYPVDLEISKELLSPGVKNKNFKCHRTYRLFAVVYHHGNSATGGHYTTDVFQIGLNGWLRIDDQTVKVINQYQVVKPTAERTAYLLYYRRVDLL

Chain of ATXN3 (P54252 whole entry): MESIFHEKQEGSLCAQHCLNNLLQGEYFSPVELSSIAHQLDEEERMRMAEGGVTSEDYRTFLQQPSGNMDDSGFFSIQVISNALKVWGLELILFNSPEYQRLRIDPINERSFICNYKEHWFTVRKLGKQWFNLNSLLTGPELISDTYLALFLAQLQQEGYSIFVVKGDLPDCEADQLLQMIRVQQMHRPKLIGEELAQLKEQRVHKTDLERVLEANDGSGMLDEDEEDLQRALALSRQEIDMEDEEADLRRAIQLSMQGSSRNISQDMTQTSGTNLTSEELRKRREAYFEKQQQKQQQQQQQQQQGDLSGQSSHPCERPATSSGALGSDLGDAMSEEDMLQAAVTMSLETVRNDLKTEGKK
Chain of OTUD1 (Q5VV17 whole entry): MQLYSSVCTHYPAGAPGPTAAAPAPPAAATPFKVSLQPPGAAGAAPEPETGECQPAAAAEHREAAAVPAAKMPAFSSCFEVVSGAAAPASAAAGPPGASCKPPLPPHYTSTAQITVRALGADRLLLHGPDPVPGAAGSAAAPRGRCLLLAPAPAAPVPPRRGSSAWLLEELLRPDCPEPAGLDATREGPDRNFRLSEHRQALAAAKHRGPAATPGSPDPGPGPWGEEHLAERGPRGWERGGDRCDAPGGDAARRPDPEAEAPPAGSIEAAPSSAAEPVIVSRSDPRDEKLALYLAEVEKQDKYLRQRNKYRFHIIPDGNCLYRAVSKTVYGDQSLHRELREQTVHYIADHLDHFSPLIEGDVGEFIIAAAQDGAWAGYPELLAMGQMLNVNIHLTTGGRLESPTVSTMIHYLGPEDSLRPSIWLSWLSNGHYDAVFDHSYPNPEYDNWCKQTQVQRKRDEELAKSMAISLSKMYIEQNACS
Chain of UCHL3 (P15374 whole entry): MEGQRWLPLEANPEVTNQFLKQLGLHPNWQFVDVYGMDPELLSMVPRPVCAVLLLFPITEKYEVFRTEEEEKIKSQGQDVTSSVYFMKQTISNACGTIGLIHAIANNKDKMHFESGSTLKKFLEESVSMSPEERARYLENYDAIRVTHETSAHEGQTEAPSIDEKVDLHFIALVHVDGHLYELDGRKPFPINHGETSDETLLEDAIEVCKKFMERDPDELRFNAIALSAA
Chain of MERS-CoV PLpro (K9N7C7 1482-1803 limits assumed): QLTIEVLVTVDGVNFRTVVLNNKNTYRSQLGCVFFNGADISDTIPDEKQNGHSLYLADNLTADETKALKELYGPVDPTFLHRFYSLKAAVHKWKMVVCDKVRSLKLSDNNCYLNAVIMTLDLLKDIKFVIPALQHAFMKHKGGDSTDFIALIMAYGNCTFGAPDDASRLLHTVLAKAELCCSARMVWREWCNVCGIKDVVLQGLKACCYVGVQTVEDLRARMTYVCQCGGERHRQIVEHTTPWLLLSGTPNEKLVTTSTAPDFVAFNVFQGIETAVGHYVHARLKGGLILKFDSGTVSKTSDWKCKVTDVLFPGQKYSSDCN
Chain of Cezanne (Q6GQQ9 whole entry): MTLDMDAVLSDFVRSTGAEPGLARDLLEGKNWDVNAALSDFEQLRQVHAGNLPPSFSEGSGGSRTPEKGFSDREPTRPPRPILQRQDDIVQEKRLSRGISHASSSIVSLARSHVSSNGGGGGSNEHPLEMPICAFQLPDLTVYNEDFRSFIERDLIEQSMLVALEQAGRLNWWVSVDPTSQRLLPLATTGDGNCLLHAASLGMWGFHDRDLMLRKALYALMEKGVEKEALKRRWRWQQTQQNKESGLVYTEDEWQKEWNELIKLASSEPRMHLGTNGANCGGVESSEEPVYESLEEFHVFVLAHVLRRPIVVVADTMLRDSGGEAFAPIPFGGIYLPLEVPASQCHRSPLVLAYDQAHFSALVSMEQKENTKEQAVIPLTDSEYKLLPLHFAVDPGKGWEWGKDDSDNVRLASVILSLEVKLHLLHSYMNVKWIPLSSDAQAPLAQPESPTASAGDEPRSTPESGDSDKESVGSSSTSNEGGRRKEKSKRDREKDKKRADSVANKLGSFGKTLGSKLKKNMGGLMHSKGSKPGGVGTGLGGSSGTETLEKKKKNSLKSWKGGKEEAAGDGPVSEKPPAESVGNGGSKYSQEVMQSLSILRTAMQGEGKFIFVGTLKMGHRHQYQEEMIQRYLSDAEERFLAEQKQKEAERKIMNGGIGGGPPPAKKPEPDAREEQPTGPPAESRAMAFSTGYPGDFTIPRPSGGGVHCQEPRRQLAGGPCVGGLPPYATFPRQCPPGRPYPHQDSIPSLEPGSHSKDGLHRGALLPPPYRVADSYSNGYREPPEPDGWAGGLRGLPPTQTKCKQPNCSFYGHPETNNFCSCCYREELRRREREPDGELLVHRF
Chain of USP21 (Q9UK80 whole entry): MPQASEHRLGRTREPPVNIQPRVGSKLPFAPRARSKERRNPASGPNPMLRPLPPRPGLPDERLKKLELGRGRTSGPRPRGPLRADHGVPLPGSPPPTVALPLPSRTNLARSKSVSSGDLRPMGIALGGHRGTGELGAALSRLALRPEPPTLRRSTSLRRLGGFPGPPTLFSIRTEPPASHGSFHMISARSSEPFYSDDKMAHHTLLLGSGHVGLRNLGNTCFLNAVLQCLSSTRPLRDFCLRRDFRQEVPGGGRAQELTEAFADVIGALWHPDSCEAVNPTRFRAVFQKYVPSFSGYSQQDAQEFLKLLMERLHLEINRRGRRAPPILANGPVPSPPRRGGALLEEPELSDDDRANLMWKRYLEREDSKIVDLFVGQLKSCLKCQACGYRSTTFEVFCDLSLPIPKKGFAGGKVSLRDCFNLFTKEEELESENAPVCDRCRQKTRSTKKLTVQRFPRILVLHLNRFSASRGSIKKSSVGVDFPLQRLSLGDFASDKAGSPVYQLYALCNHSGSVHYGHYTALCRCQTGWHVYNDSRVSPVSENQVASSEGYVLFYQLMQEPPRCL

Structure (SMILES): COc1ccc2cc(C(=O)C3CCCN(C4CCCC4)C3)ccc2c1 (centres unmarked) [WEHI-P1]
- inhibition of SARS-CoV PLpro, UbRh dose-response replicate value (SARS-CoV PLpro; Conc 3.63 µM): 43.26 and 41.4233 and 40.1519 and 56.4827 and 56.7648 and 53.2219
- inhibition at 3.63 µM (SARS-CoV PLpro; Conc 3.63 µM, read-out: inhibition of SARS-CoV PLpro, UbRh dose-response replicate value): 43.3%
- inhibition of SARS-CoV PLpro, UbRh dose-response replicate value (SARS-CoV PLpro; Conc 98 µM): 89.3568 and 87.1144 and 87.3043 and 96.6611 and 96.2974 and 95.7026 and 96.1294
- inhibition at 98 µM (SARS-CoV PLpro; Conc 98 µM, read-out: inhibition of SARS-CoV PLpro, UbRh dose-response replicate value): 89.2%
- inhibition at […] (SARS-CoV PLpro; read-out: inhibition of SARS-CoV PLpro, UbRh dose-response replicate value): 84.6% and 69.7%
- inhibition of MERS-CoV PLpro, UbRh dose-response replicate value (MERS-CoV PLpro; Conc 0.00498 µM): -4.614 and -3.364 and 0.3636 and -5.453 and 6.667 and 6.005 and 3.997 and 2.909
- inhibition of MERS-CoV PLpro, UbRh dose-response replicate value (MERS-CoV PLpro; Conc 0.0149 µM): -3.576 and -5.738 and -4.053 and -6.88 and 8.95 and 6.88 and 9.641 and 2.2309
- inhibition of MERS-CoV PLpro, UbRh dose-response replicate value (MERS-CoV PLpro; Conc 0.0448 µM): -7.082 and -11.2097 and -12.434 and -8.665 and 6.324 and 5.9119 and 5.395 and 2.288
- inhibition of MERS-CoV PLpro, UbRh dose-response replicate value (MERS-CoV PLpro; Conc 3.63 µM): -1.223 and -11.7007 and -12.14 and -8.237 and 5.5159 and 6.719
- inhibition of MERS-CoV PLpro, UbRh dose-response replicate value (MERS-CoV PLpro; Conc 98 µM): -14.4158 and -18.412 and -13.4114 and -9.9342 and 9.6505 and 10.1326 and 6.766 and 4.38
- Kd (SARS-CoV-2 PLpro [1]): 8300 nM
- inhibition of Cezanne, UbRh dose-response replicate value (Cezanne): -18.912 and -15.6278 and -2.351 and 1.9841 and -10.3668 and -26.3356 and -4.177 and -7.241 and -8.329 and -15.5113 and -9.927 and -0.3728 and -12.3899 and 0.2487 and -4.422 and -3.858 and -10.5494 and -3.083 and 1.0161 and -4.6404
- inhibition of Cezanne, UbRh dose-response replicate value (Cezanne; Conc 0.00498 µM): -5.218 and -11.645 and -1.408 and -0.02766
- inhibition of Cezanne, UbRh dose-response replicate value (Cezanne; Conc 0.0149 µM): -1.15 and -11.2131 and -3.066 and -2.486
- inhibition of Cezanne, UbRh dose-response replicate value (Cezanne; Conc 0.0448 µM): -8.614 and -15.6484 and -3.285 and 0.7467
- inhibition of Cezanne, UbRh dose-response replicate value (Cezanne; Conc 3.63 µM): -15.9321 and -15.0246 and -5.238 and -9.8
- inhibition of Cezanne, UbRh dose-response replicate value (Cezanne; Conc 98 µM): -30.6124 and -29.2216 and 3.466 and 11.4705
- EC50 (SARS-CoV-2 PLpro [2]): > 20000 nM
- inhibition of OTUD1, UbRh dose-response replicate value (OTUD1): -10.6037 and -11.2887 and -9.792 and -7.833 and -12.7647 and -0.9075 and 2.163 and -5.7654 and -7.285 and -0.8912 and -5.258 and -7.97 and -1.274 and -2.017 and -4.922 and 1.155 and -8.198 and 3.097 and -7.799 and -6.802
- inhibition of OTUD1, UbRh dose-response replicate value (OTUD1; Conc 0.00498 µM): -2.098 and -3.857
- inhibition of OTUD1, UbRh dose-response replicate value (OTUD1; Conc 0.0149 µM): 0.5359 and 5.168 and -4.672 and 0.608
- inhibition of OTUD1, UbRh dose-response replicate value (OTUD1; Conc 0.0448 µM): 0.07106 and -1.381 and -0.3944 and -8.021
- inhibition of OTUD1, UbRh dose-response replicate value (OTUD1; Conc 3.63 µM): -3.7862 and -2.718 and -1.038 and -8.072
- inhibition of OTUD1, UbRh dose-response replicate value (OTUD1; Conc 98 µM): -27.4599 and -27.4028
- inhibition of ATXN3, UbRh dose-response replicate value (ATXN3): -8.641 and -11.1993 and -4.869 and 4.344 and -19.3823 and -18.001 and -0.7368 and -2.308 and -5.209 and -10.7506 and -7.279 and -8.7353 and -8.48 and -12.1184 and -9.5356 and 0.5603 and -15.7867 and -11.4036 and -7.524
- inhibition of ATXN3, UbRh dose-response replicate value (ATXN3; Conc 0.00498 µM): -12.0566 and -16.4021 and -4.426 and -13.5708
- inhibition of ATXN3, UbRh dose-response replicate value (ATXN3; Conc 0.0149 µM): -11.0193 and -9.528 and -12.1815 and -14.805
- inhibition of ATXN3, UbRh dose-response replicate value (ATXN3; Conc 0.0448 µM): -8.047 and -9.745 and -7.569 and -8.486
- inhibition of ATXN3, UbRh dose-response replicate value (ATXN3; Conc 3.63 µM): -16.703 and -12.2662 and -13.9462 and -9.635
- inhibition of ATXN3, UbRh dose-response replicate value (ATXN3; Conc 98 µM): -16.0742 and -15.5502
- inhibition of UCHL3, UbRh dose-response replicate value (UCHL3): -15.7962 and -10.6437 and -3.089 and -8.07 and -1.79 and -9.314 and -4.512 and -11.432 and -8.325 and -0.3429 and -5.346 and 2.661 and -3.761 and -0.9211 and -0.1651 and 0.1836 and -9.635 and -0.5542 and -7.392
- inhibition of UCHL3, UbRh dose-response replicate value (UCHL3; Conc 0.00498 µM): -2.717 and -5.843 and -1.232 and -3.133
- inhibition of UCHL3, UbRh dose-response replicate value (UCHL3; Conc 0.0149 µM): -3.556 and -7.101 and -2.8889 and -5.9018
- inhibition of UCHL3, UbRh dose-response replicate value (UCHL3; Conc 0.0448 µM): -13.5671 and -9.936 and 2.559 and -5.235
- inhibition of UCHL3, UbRh dose-response replicate value (UCHL3; Conc 3.63 µM): -2.824 and -12.2743 and -7.514 and -7.892
- inhibition of UCHL3, UbRh dose-response replicate value (UCHL3; Conc 98 µM): -24.2494 and -16.3148 and -12.8948 and -13.0616
- inhibition of USP21, UbRh dose-response replicate value (USP21): -17.3591 and -12.2032 and -18.6472 and -15.4853 and -14.4522 and -19.2052 and -17.9515 and -18.065 and -8.946 and -2.6161 and -10.7527 and -20.9333 and -7.844 and -9.819 and -13.8068 and -21.9255 and -4.154 and -2.302 and -19.2663 and -19.4961
- inhibition of USP21, UbRh dose-response replicate value (USP21; Conc 0.00498 µM): -6.669 and -13.4551 and -20.5516 and -18.4137
- inhibition of USP21, UbRh dose-response replicate value (USP21; Conc 0.0149 µM): -7.696 and -8.6697 and -11.755 and -9.346
- inhibition of USP21, UbRh dose-response replicate value (USP21; Conc 0.0448 µM): -2.649 and -22.6918 and -12.9296
- inhibition of USP21, UbRh dose-response replicate value (USP21; Conc 3.63 µM): -16.692 and -5.223 and -23.134 and -16.0626
- inhibition of USP21, UbRh dose-response replicate value (USP21; Conc 98 µM): -13.9863 and -21.5031 and -20.8818 and -12.5688
- EC50 [3]: > 2000 nM
- Molar Mass (kDa) (SARS-CoV-2 PLpro [4]): 32.7945 kDa and 33.2145 kDa and 33.2745 kDa
- observed molar mass of PLpro (SEC-MALS) (SARS-CoV-2 PLpro [4]): 34.9 kDa
- inhibition of SARS-CoV-2 PLpro, UbRh dose-response replicate value (SARS-CoV-2 PLpro [5]; Conc 0.00498 µM): -13.6732 and 2.3131 and -7.154 and -11.0795 and 7.963 and 4.4501 and -10.0607 and -6.545 and -6.343 and -0.9072 and -6.992 and -7.263 and -7.665
- inhibition of SARS-CoV-2 PLpro, UbRh dose-response replicate value (SARS-CoV-2 PLpro [5]; Conc 0.0149 µM): -0.6879 and 3.256 and -8.137 and -12.3628 and 2.155 and 5.8571 and -3.891 and -5.469 and -7.734 and -5.926 and -7.3449
- inhibition of SARS-CoV-2 PLpro, UbRh dose-response replicate value (SARS-CoV-2 PLpro [5]; Conc 0.0448 µM): 1.291 and 3.348 and -5.506 and -4.578 and 2.528 and 6.172 and -28.1035 and -26.7808 and -16.0105 and -8.021 and -5.978 and -3.428 and -7.448
- inhibition of SARS-CoV-2 PLpro, UbRh dose-response replicate value (SARS-CoV-2 PLpro [5]; Conc 3.63 µM): 55.1403 and 49.1297 and 72.2398 and 55.1118 and 68.8818 and 68.3038 and 70.3435 and 68.1584 and 58.3924 and 61.1283 and 62.8891 and 58.2582 and 68.987
- inhibition of SARS-CoV-2 PLpro, UbRh dose-response replicate value (SARS-CoV-2 PLpro [5]; Conc 98 µM): 124.948 and 118.973 and 118.719 and 93.4483 and 92.6536 and 95.3254 and 94.6236 and 97.9546 and 83.9689 and 107.904 and 110.814 and 103.242 and 108.864
- IC50 (SARS-CoV-2 PLpro [5]): 2600 nM
- IC50 (SARS-CoV-2 PLpro [5]; Supplementary Fig. 2b): 2600 nM
- cross-reactivity in a panel of human DUBs [6]: no cross-reactivity
- inhibition of USP10, UbRh dose-response replicate value (USP10): -17.9764 and -33.546 and -1.777 and -1.005 and -2.268 and -5.196 and 1.437 and 7.331 and 6.946 and -2.385 and 10.5944 and 12.4488 and -3.943 and -14.76 and 8.848 and 13.2594 and -3.1801
- inhibition of USP10, UbRh dose-response replicate value (USP10; Conc 0.00498 µM): 10.1443 and 12.7446 and 2.857 and 1.607
- inhibition of USP10, UbRh dose-response replicate value (USP10; Conc 0.0149 µM): 1.87 and 11.8374 and 1.723 and 2.761
- inhibition of USP10, UbRh dose-response replicate value (USP10; Conc 0.0448 µM): 5.874 and 6.2633 and -3.914
- inhibition of USP10, UbRh dose-response replicate value (USP10; Conc 3.63 µM): -1.745 and -4.256 and -2.239 and 0.7005
- inhibition of USP10, UbRh dose-response replicate value (USP10; Conc 98 µM): -22.6046 and 5.737 and 3.4
